# Source: paper PMC7949122 (The Journal of Biological Chemistry, 2021)
# Molecular target: T1, mutant human B2R(Ø) lacking AltB2R expression (Homo sapiens, UniProt P30411)
# T1 construct: expressed in transfected cells; host or cells: HEK293A
# T1 sequence (P30411 1-391): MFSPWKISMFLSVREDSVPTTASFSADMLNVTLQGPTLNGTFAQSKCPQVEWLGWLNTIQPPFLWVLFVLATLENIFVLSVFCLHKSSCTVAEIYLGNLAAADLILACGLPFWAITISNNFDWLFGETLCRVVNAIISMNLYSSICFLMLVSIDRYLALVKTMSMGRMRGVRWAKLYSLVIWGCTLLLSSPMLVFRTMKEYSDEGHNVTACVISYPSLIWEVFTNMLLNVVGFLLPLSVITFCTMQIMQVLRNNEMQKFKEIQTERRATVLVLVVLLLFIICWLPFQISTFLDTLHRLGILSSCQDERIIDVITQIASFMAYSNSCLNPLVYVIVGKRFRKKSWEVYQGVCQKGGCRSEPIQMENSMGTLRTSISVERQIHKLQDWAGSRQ
# Experiment: Competitive displacement of [3H]-BK binding, living B2R(Ø)-transfected HEK293A cells
# Conditions: n = 3
# Protocol: Black and gray, negative controls with secondary antibodies only; blue, ^FlagB2R transfected cells; red, ^FlagB2R^(Ø) transfected cells. […] Reported Kd are expressed in nM. Bmax is expressed in fmol/10^6 cells.
# Radioligand competition binding assay was performed using adherent living HEK293A cells transiently transfected with B2R or B2R^(Ø), as we previously described ([54]). […] Saturation binding assays were performed using adherent living HEK293A cells transiently transfected with B2R or B2R^(Ø). […] After the incubation time, cells were washed twice with ice-cold PBS, lysed with 200 μl of 0.1 N sodium hydroxide, and transferred into scintillation vials containing 4 ml scintillation liquid. The radioactivity was measured with a β-counter and data were analyzed using GraphPad 6.01 (GraphPad Software, Inc).
structure (smiles),measurement,value
CC(=O)Nc1ccc(/C=C/C(=O)NCC(=O)N(C)c2ccc(Cl)c(COc3cccc4ccc(C)nc34)c2Cl)cn1 [FR173657],"binding affinity, B2R versus B2R(Ø)",same affinities
